Common to all, as to assay: inhibition of tumour cell growth, NCI panel, 48 h
Assay [1] has as its system HL-60(TB) leukemia.
Assay [2] relates to HOP-62 NSCLC.
In assay [3] the test system is KM12 colon.
Assay [4] concerns MCF7 breast.
Assay [5] concerns MDA-MB-435.
Assay [6] concerns NCI-H460 lung.
Assay [7] relates to NCI-H522 lung.
For assay [8], the system named is OVCAR-8 ovarian.
The test system of assay [9] is SK-OV-3 ovarian.
For assay [10], the system named is T-47D breast.

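Growth conditions: 96-well plates. Treatment: test compound, 48 hours, 5 concentrations. Analysis: linear interpolation between bracketing concentrations; unreached endpoints set to highest concentration. GI50 marks 50% less growth. TGI is the concentration that stops growth completely.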

On to `CCOC(=O)Nc1ccc2nc(Sc3ccc(Cl)cc3)sc2c1`, for which the GI50 is 0.815 µM in [1]; 9.43 µM in assay [2]; 0.684 µM in [3]; 1.66 µM in assay [4]; 0.222 µM in assay [5]; 1.01 µM in assay [6]. The GI50 in [7] is 2.47 µM; in assay [8] it was 7.72 µM; in assay [9], 4.8 µM; in assay [10], 5.93 µM. The TGI in assay [1] is 30.1 µM; in [2], greater than 100 µM; in [3], greater than 58.8 µM; in [4] it was greater than 58.7 µM; in assay [5] it was 0.561 µM; in [6] it was greater than 76.9 µM. Moreover, the TGI in [7] was 35.2 µM; in assay [8], 70.4 µM; in assay [9] it was greater than 95 µM; in assay [10] it was greater than 78.7 µM.
Regarding `CCOC(=O)CCC(NC(=O)c1ccc(Nc2nc3cc(N)cc(N)c3nc2-c2ccccc2)cc1)C(=O)OCC` (stereo not given), the GI50 in assay [1] is 9.62 µM; in [2], greater than 44.1 µM; in assay [3], greater than 52.9 µM; in [4], 34.8 µM; in [5] it was 29.9 µM; in [6], greater than 29.3 µM. Also, the GI50 in assay [7] was 27.9 µM; in assay [8] it was 47.1 µM; in assay [9], 22 µM; in assay [10], 6.7 µM. The TGI in assay [1] is 50.7 µM; in assay [2] it was greater than 63 µM; in assay [3], greater than 100 µM; in assay [4], greater than 100 µM; in [5], greater than 60.4 µM; in assay [6], greater than 69.3 µM. In addition, the TGI is greater than 100 µM in assay [7], greater than 100 µM in [8], 47.7 µM in assay [9] and greater than 22.1 µM in [10].
For `Fc1ccc(-c2ncn(C3CCNCC3)c2-c2ccnc(Oc3ccc(Oc4ccccc4)cc3)n2)cc1`, the GI50 was 3.93 µM in [1]; 4.05 µM in [2]; 4.16 µM in assay [3]; 3.23 µM in assay [4]; 3.92 µM in assay [5]; 3.66 µM in assay [6]. For the same compound, the GI50 in assay [7] was 4.67 µM; in [8], 4.2 µM; in assay [9] it was 4.41 µM; in assay [10], 4.45 µM. Further, the TGI in assay [1] was determined as 8.33 µM; in [2] it was 7.64 µM; in assay [3], 7.8 µM; in assay [4], 6.9 µM; in [5] it was 8.46 µM; in assay [6] it was 7.28 µM. For the same compound, the TGI in [7] turned out to be 8.7 µM; in assay [8], 8.4 µM; in [9], 7.9 µM; in assay [10], 8.55 µM.
`O=C(Nc1ccc(Oc2cccc(Cl)c2)c(Cl)c1)c1cccnc1`: the GI50 in assay [1] is 1.51 µM; in assay [2], 1.8 µM; in [3], 0.782 µM; in assay [4] it was 0.597 µM; in assay [5], 0.155 µM; in assay [6], 1.88 µM. Further, the GI50 was 0.968 µM in assay [7], 2.85 µM in assay [8], 2.12 µM in [9] and 1.91 µM in [10]. The TGI in assay [1] is 6.16 µM; in assay [2], 25.1 µM; in assay [3] it was 12 µM; in assay [4], greater than 50 µM; in assay [5] it was 0.723 µM; in assay [6] it was 19.1 µM. For the same compound, the TGI is 5.89 µM in assay [7], 33.9 µM in assay [8], greater than 50 µM in assay [9] and greater than 50 µM in [10].
In the case of `Nc1ccc(Sc2ccc3c4c2cccc4c(=O)n2c4ccccc4nc32)cc1`, the GI50 in assay [1] is 3.71 µM; in assay [2], 4.34 µM; in [3], 6.63 µM; in assay [4], 2.71 µM; in assay [5] it was 12.6 µM; in [6], 1.9 µM. The GI50 in assay [7] is 3.99 µM; in assay [8], 5.13 µM; in [9], 5.63 µM; in assay [10] it was 3.87 µM. The TGI worked out at 12 µM in [1]; 17.2 µM in [2]; 58.6 µM in assay [3]; 35.3 µM in assay [4]; 82.2 µM in assay [5]; 14.3 µM in assay [6]. The TGI in assay [7] was found to be 36.8 µM; in [8], 30.9 µM; in assay [9], 37.2 µM; in assay [10], 33.4 µM.
With `C/C(=C\COc1ccc2ccc(=O)oc2c1)CCC(=O)C(C)(C)O`, the TGI in assay [1] was 45.7 µM; in [2] it was greater than 100 µM; in assay [3] it was 41 µM; in assay [4], 40.6 µM; in assay [5], 59.2 µM; in [6], greater than 100 µM. Besides, the TGI is 43.6 µM in assay [7], 76.3 µM in [8], 99.4 µM in assay [9] and greater than 100 µM in assay [10].
Regarding `COc1ccc2c(c1)/C(=N/OC(C)=O)c1c-2c(Nc2ccc(/C(C)=N/OC(C)=O)cc2)nc2ccccc12`, the GI50 in [1] is 16.3 µM; in [2], 38.1 µM; in assay [3] it was 43.5 µM; in [4], 53 µM; in assay [5] it was 86.2 µM; in assay [6], 35.7 µM. The GI50 is 73.4 µM in [7], 63.3 µM in assay [8], 71.6 µM in assay [9] and 20.6 µM in assay [10]. The TGI in assay [1], in [2], in [3], in assay [4], in assay [5] and in assay [6] was greater than 100 µM throughout. Moreover, the TGI in assay [7] was greater than 100 µM; in [8], greater than 100 µM; in assay [9], greater than 100 µM; in assay [10] it was 43 µM.
Consider `Cn1cc(C2=C(c3cccc(Cl)c3)C(=O)NC2=O)c2ccccc21`, for which the GI50 in assay [1] is greater than 25 µM; in assay [2] it was greater than 25 µM; in [3] it was greater than 25 µM; in [4], greater than 25 µM; in [5], 12.6 µM; in [6], greater than 22.7 µM. For the same compound, the GI50 was greater than 25 µM in assay [7], greater than 25 µM in assay [8], greater than 25 µM in assay [9] and 20 µM in assay [10]. The TGI in assay [1], in [2], in assay [3], in assay [4], in assay [5] and in [6] was greater than 25 µM in each case. For the same compound, the TGI in [7], in assay [8], in assay [9] and in assay [10] was greater than 25 µM throughout.
As for `O=C1c2ccccc2-c2c1c1ccccc1c(=O)n2CCCNCCO`, the GI50 was 0.175 µM in assay [1]; 0.317 µM in assay [2]; 0.485 µM in assay [3]; 0.102 µM in assay [4]; 0.895 µM in [5]; 0.111 µM in assay [6]. For the same compound, the GI50 was 0.689 µM in assay [7], 0.239 µM in assay [8], 2.1 µM in [9] and 1.05 µM in assay [10]. For the same compound, the TGI was 0.88 µM in assay [1]; 2.61 µM in [2]; 4 µM in assay [3]; 5.03 µM in assay [4]; 4.92 µM in [5]; 1.56 µM in assay [6]. The TGI in assay [7] was 4.33 µM; in assay [8], 11.6 µM; in assay [9], 14.4 µM; in [10], 7.58 µM.
For `CN1CCN(Cc2ccc(NC(=O)c3cncc(C#Cc4cncc5[nH]ncc45)c3)cc2C(F)(F)F)CC1`, the GI50 in assay [1] is 0.249 µM; in assay [2], 0.882 µM; in assay [3], 0.0209 µM; in assay [4] it was 1.09 µM; in assay [5], 0.556 µM; in [6] it was 1.19 µM. The GI50 in [7] was 1.16 µM; in [8], 1.5 µM; in [9], 1.4 µM; in assay [10], 1.8 µM. Further, the TGI in [1] turned out to be 1.38 µM; in [2], 4.86 µM; in assay [3], 2.65 µM; in assay [4] it was 6.77 µM; in [5] it was 5.33 µM; in assay [6], 5.6 µM. Further, the TGI in [7] was 8 µM; in [8], 6.73 µM; in [9], 4.89 µM; in [10] it was 9.4 µM.
With `CCN(CC)CCn1nc2c3c(cccc3c1=O)-c1ccccc1-2`, the GI50 in assay [1] is 1.8 µM; in [2], 2.18 µM; in assay [3], 2.84 µM; in assay [4], 0.715 µM; in [5], 2.96 µM; in assay [6], 1.49 µM. Further, the GI50 was 2.21 µM in assay [7], 2.23 µM in [8], 2.13 µM in assay [9] and 2.06 µM in assay [10]. Further, the TGI in assay [1] is 9.22 µM; in [2], 15.9 µM; in assay [3], greater than 50 µM; in assay [4], 3.51 µM; in assay [5], 10.5 µM; in assay [6], greater than 50 µM. For the same compound, the TGI was 9.84 µM in assay [7], greater than 50 µM in assay [8], greater than 50 µM in [9] and 27 µM in assay [10].
As for `C=C(C)[C@@H]1CC[C@@H]2C(=CC[C@]3(C)C([C@H](C)CC/C=C(/C)C(=O)O)CC[C@@]23C)[C@@]1(C)CCC(=O)O` (stereo not given in full), the TGI in assay [1] is 72.5 µM; in assay [2], greater than 100 µM; in assay [3] it was 48.7 µM; in assay [4], greater than 100 µM; in assay [5], 89.7 µM; in assay [6], 40.6 µM. Moreover, the TGI is 91.6 µM in assay [7], greater than 100 µM in assay [8], greater than 100 µM in assay [9] and greater than 100 µM in assay [10].
Take `O=[N+]([O-])C1(CO)COC2(OC1)c1ccccc1-c1ccccc12`: the TGI in assay [1] is 58.5 µM; in [2], greater than 100 µM; in assay [3], greater than 100 µM; in assay [4] it was greater than 95.3 µM; in assay [5], greater than 100 µM; in [6] it was greater than 100 µM. The TGI in [7] is 41 µM; in [8], greater than 100 µM; in assay [9], greater than 100 µM; in assay [10], 77.2 µM.
As for `NS(=O)(=O)c1ccc(N=Nc2cc3ccccc3c(C(=O)O)c2O)cc1`, the TGI in assay [1] is greater than 100 µM; in assay [2], greater than 100 µM; in assay [3], greater than 100 µM; in [4], greater than 84.7 µM; in [5] it was greater than 100 µM; in [6], greater than 87.5 µM. Also, the TGI in [7] is greater than 65.6 µM; in [8] it was greater than 100 µM; in assay [9] it was greater than 100 µM; in assay [10], greater than 100 µM.
In the case of `CCN(Cc1cccc(C)c1)c1ccc(CO)c(Cl)c1`, the GI50 in [1] is 14.1 µM; in assay [2], 2.55 µM; in assay [3], 13.9 µM; in [4], 0.366 µM; in assay [5], 15.7 µM; in assay [6] it was 0.513 µM. The GI50 in assay [7] was 13.2 µM; in [8], 12.3 µM; in [9], 11.7 µM; in assay [10] it was 0.294 µM. For the same compound, the TGI in assay [1] came out at 41.1 µM; in assay [2] it was 22 µM; in [3], 27.8 µM; in [4], 11.1 µM; in assay [5], 32.1 µM; in assay [6], 14.5 µM. The TGI amounted to 27.5 µM in assay [7], 28.3 µM in [8], 29.5 µM in assay [9] and 1.81 µM in [10].
Regarding `Cn1ccnc1C(=O)/C=C/c1ccc(CC(=O)Nc2cc(F)c(F)c(F)c2)cc1`, the GI50 in [1] is 0.716 µM; in [2], 1.17 µM; in assay [3], 1.58 µM; in assay [4] it was 1.36 µM; in assay [5], 3.36 µM; in assay [6] it was 1.49 µM. In addition, the GI50 in [7] is 2.64 µM; in assay [8], 1.33 µM; in assay [9], 5.59 µM; in [10] it was 1.29 µM. Moreover, the TGI in assay [1] was determined as 2.45 µM; in assay [2] it was 4.94 µM; in [3], 5.51 µM; in [4], 6.82 µM; in assay [5], 10.4 µM; in assay [6] it was 11.8 µM. In addition, the TGI was 7.72 µM in assay [7], greater than 25 µM in [8], greater than 25 µM in assay [9] and 8.14 µM in assay [10].

For the origin of these results see PubChem BioAssay (NCI).
